Data reported in patent US20260069555A1, “Compositions and Methods for Modulating the Effect of Beta-Blocker Activity in a Subject” (Duke University, priority 2021, published 2026).
Where “and” joins values, the source holds several entries; their conditions need not be identical. Identical values can stand only once. Each block holds one compound with its values, some of them ahead of it.

Legend:
[1] = target: endogenously expressed β2AR (Homo sapiens, UniProt P07550); experiment: GloSensor cAMP generation in HEK293 cells; settings: 30 μM modulator
β2AR-Gs complexes = β2AR-Gs complexes (Homo sapiens, UniProt P07550); experiment: 35S-GTPγS binding to heterotrimeric Gs, β2AR in HDL; settings: epinephrine 10 μM stimulation
β2AR = β2AR (Homo sapiens, UniProt P07550); experiment: 125I-CYP competition radioligand binding at β2AR in HDL particles
β1AR [2] = target: T1, β1AR (Homo sapiens, UniProt P08588); experiment: EGFR transactivation (EGFR endocytosis BRET) in HEK293 cells stably expressing β1ARs; assay type: cell-based
Method: HEK293 cells stably expressing β1ARs were transfected with 250 ng of EGFR-RlucII and 1 μg of rGFP-FYVE constructs. The day following transfection, cells were re-seeded onto poly-L-ornithine coated 96-well plates at ˜25,000 cells per well. […] The cell-permeable substrate coelenterazine 400a (final concentrations of 5 μM) was added 3˜6 min before BRET measurements.

β1AR [3] = target: T1, β1AR; experiment: ERK activation assay in HEK293 cells expressing β1ARs; assay type: cell-based; settings: for dependency of ERK activation on β-arrestin: β-arrestin1/2 knockout vs wild type HEK293 cells
Source text: ERK activation assay: HEK293 cells with stable overexpression of FLAG-tagged β1AR or β-arrestin knockout were described previously. Cells were periodically treated with BM Cyclin (Roche) to avoid mycoplasma contamination. […] Cell lysate samples were separated by SDS-PAGE, transferred to PVDF membrane (Bio-Rad) and subjected to immunoblotting with anti-MAPK 1/2 (EMD Millipore) and anti-p44/42 MAPK (Cell Signaling) antibodies. Immunoblots were detected using enhanced chemiluminescence (Thermo Fisher Scientific) and analyzed with ImageJ software. The densitometry values from pERK blots were normalized to respective total ERK blots, and normalized to the maximum response of control group in each experiment.

C57BL/6J wild-type mice = experiment: Isoproterenol-induced hemodynamics in mouse heart; assay type: in vivo; settings: 3 days
Method: Isoproterenol-induced hemodynamic in mouse heart: Eight to twelve-week-old C57BL/6J wild-type mice of both sexes were used. Animal experiments carried out were handled according to approved protocols and animal welfare regulations mandated by the Institutional Animal Care and Use Committee of Duke University Medical Center. […] After treatment, mice were anesthetized with ketamine (100 mg/kg) and xylazine (2.5 mg/kg). After bilateral vagotomy, a 1.4 French (0.46 mm) high fidelity micromanometer catheter (ADInstruments) connected to a pressure transducer (ADInstruments) was inserted into the left ventricle to monitor blood pressure. Basal blood pressure was recorded at steady state after the catheter insertion (2-3 min after insertion). Graded doses of isoproterenol were administered at 45 sec intervals by intravenous injection through a jugular vein. The blood pressure was monitored continuously and recorded at the steady state (35-45 sec after each injection). Data analysis was performed using LabChart 8 software (ADInstruments).

mouse hearts = experiment: Ischemia/reperfusion-induced cell apoptosis in mouse heart (TUNEL); assay type: in vivo
Method: Ischemia reperfusion-induced cell apoptosis in mouse heart: Eight to twelve-week-old C57BL/6J wild-type mice or eight to twenty-seven-week-old αMyHC-Cre:Arrblflox/flox/Arrb2flox/flox mice of both sexes were used. Animals were randomly assigned to, and the researchers were blinded for, treatment groups. […] After 3 days of treatment, cardiac ischemia was produced by the ligation of left anterior descending coronary artery. After 45 min, the ligation was released to allow the blood flow to be restored for 45 min. […] The hearts were then embedded in optimum cutting temperature compound (Sakura Finetek) and snap frozen in liquid nitrogen. TUNEL staining on the cryo-sections were performed with in situ cell death detection kit (Sigma-Aldrich) according to the manufacturer's protocol. Sections were then mounted in ProLon Diamond Antifade Mountant with DAPI (Thermo Fisher Scientific). Images were recorded with Zeiss Axio Observer Z1 confocal microscope with 20× objective. In each heart, sections from different groups (from base to apex of the tissue, apart by 0.5 mm) were stained, and the group with maximum TUNEL-positive cells were used for quantification. At lease 9 images from 3 sections were quantified for each heart. The number of TUNEL-positive cells and the total number of nuclei as determined by DAPI staining were counted using ImageJ software.

β1AR [4] = target: T1, β1AR; experiment: GloSensor cAMP assay in HEK293 cells transfected with β1ARs; settings: for activation of cAMP: β-blockers as stimulating ligands
β1AR [5] = target: T1, β1AR; experiment: 125I-CYP competition binding at β1AR-HDL particles (Example 2)

Chain of β2AR (P07550 whole entry): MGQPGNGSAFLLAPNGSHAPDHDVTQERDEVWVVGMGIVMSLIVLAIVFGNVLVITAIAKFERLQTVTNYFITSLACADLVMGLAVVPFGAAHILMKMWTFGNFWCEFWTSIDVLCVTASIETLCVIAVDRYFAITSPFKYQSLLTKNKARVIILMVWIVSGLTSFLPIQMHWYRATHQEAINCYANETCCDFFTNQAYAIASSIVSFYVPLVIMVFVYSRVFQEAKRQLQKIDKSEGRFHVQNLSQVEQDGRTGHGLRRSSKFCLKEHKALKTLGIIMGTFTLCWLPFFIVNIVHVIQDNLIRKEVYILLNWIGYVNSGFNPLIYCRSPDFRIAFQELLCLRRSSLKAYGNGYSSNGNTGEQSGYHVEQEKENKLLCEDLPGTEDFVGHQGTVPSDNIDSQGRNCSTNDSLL
T1 sequence (P08588 whole entry): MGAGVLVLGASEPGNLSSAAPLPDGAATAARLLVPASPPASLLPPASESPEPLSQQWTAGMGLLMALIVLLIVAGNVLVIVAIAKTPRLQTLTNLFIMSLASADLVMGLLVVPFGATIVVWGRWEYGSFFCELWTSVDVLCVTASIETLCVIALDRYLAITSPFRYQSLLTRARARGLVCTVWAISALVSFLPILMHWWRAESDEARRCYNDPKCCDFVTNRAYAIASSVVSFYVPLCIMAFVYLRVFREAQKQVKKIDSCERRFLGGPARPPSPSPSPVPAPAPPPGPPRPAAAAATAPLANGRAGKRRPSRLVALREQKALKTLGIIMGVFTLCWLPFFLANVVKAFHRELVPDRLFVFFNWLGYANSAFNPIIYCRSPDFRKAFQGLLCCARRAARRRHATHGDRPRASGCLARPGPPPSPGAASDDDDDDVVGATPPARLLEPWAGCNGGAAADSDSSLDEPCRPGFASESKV
Chain of endogenously expressed β2AR (P07550 whole entry): as the sequence (P07550 whole entry) above
Chain of β2AR-Gs complexes (P07550 whole entry, one chain of several): as the sequence (P07550 whole entry) above

Compound: COc1ccc(Sc2ccc(S(=O)(=O)N(C)C(C)C)cc2C(=O)N[C@@H](CC(N)=O)Cc2ccc(C(C)(C)C)cc2)cc1 [Cmpd-6, (R)—N-(4-amino-1-(4-(tert-butyl)phenyl)-4-oxobutan-2-yl)-5-(N-isopropyl-N-methylsulfamoyl)-2-((4-methoxyphenyl)thio)benzamide]
- PAM activity on the isoproterenol-induced EGFR transactivation (β1AR [2]; 30 μM Cmpd-6): no PAM activity
- cooperativity on isoproterenol-stimulated ERK activation (β1AR [3]; 30 μM Cmpd-6): no cooperativity
- potentiation of the inhibitory effect of carvedilol on heart rate and dP/dt max (C57BL/6J wild-type mice; Cmpd-6 5 mg/kg/day + carvedilol 1 mg/kg/day): only a modest potentiation
- TUNEL positive cells in the ischemic zone (mouse hearts; Cmpd-6 5 mg/kg/day alone, wild type mice): ~10%
- effect on isoproterenol- or carvedilol-induced cAMP dose response curve (β1AR [4]; 30 μM Cmpd-6): no enhancement
- cooperativity with the full agonists epinephrine and norepinephrine (β1AR [5]; 25 μM Cmpd-6): minimal positive cooperativity
- enhancement of receptor binding affinity of carvedilol for β1ARs (β1AR [5]; FIG. 10A): 7.9 fold and ~8 fold

Compound: C=CCc1ccccc1OCC(O)CNC(C)C (stereo not shown) [alprenolol]
- dependency of ERK activation on β-arrestin (β1AR [3]): ~50%
- activation of cAMP (β1AR [4]): 20 % of the maximal isoproterenol response

Compound: CC(C)(Cc1c[nH]c2ccccc12)NCC(O)COc1ccccc1C#N (stereo not shown) [bucindolol]
- dependency of ERK activation on β-arrestin (β1AR [3]): independent of β-arrestin
- activation of cAMP (β1AR [4]): 40 % of the maximal isoproterenol response

Compound: COc1ccccc1OCCNCC(O)COc1cccc2[nH]c3ccccc3c12 (stereo not shown) [carvedilol]
- effect on isoproterenol-induced hemodynamics (heart rate, dP/dt max) (C57BL/6J wild-type mice; 1 mg/kg/day, osmotic pump): minimal effect
- effect on isoproterenol-induced hemodynamics (heart rate, dP/dt max) (C57BL/6J wild-type mice; higher doses (5, 20 mg/kg/day)): blocked both the heart rate and contractility response
- effect on I/R induced apoptosis (mouse hearts; 5 or 20 mg/kg/day, wild type mice): inhibited I/R induced apoptosis
- effect on I/R-induced apoptosis (mouse hearts; low or high dose (1 or 20 mg/kg/day), cardiomyocyte-specific β-arrestin1/2 knockout mice): did not reduce

Compound: EGF: EGF ligand of the EGFR
- ligand-induced EGFR endocytosis (change in BRET ratio) (β1AR [2]; assay validation): robust change in BRET ratio

The next lines start with results.

- modulation of isoproterenol-stimulated cAMP generation [1]: classic NAM
- effect on agonist-stimulated activation of Gs / 35S-GTPγS binding to Gs (β2AR-Gs complexes): markedly blocks
- PAM activity with agonists including epinephrine (β2AR; affinity shifts, 20 μM analog): absolutely no PAM activity
- Log KT (dissociation constant of PAM for receptor binding) (β2AR; carvedilol-bound β2AR): −5.533
Compound: CC(C)N(C)S(=O)(=O)c1ccc(Sc2ccc(C(N)=O)cc2)c(C(=O)N[C@@H](CC(N)=O)Cc2ccc(C(C)(C)C)cc2)c1 [A9, (R)—N-(4-amino-1-(4-(tert-butyl)phenyl)-4-oxobutan-2-yl)-2-((4-carbamoylphenyl)thio)-5-(N-isopropyl-N-methylsulfamoyl)benzamide]
- cooperativity with carvedilol (β2AR; compared with parent cmpd-6): retains its positive cooperativity with carvedilol

- effect on EGF-induced change in BRET ratio (β1AR [2]; 10 μM pretreatment): blocked
Compound: COc1cc2ncnc(Nc3cccc(Cl)c3)c2cc1OC [AG1478]
